Assay results published in patent US20020110808A1, “Toxicant-induced differential gene expression” (priority 2000, published 2002).

Legend:
[1] = system: HepG2 cells; assay: Cell morphology after toxicant treatment; conditions: 24 hr, 20 mM acetaminophen, 16 mM caffeine or 100 mM thioacetamide
Protocol: Depending on the desired exposure time, cell treatments began 3 or 4 days after splitting or plating. At this time, the cells were near or at confluency. […] Cell treatments were at 37° C.
The general strategy used for identifying toxicant-induced gene expression changes is outlined in Table 2.

[2] = system: HepG2 cells; assay: Caspase-3 assay for apoptosis; type: cell-based, human; conditions: 100 mM thioacetamide, 24 hr
Protocol: Caspase-3 assay for apoptosis. Activation of caspase-3, an intracellular cysteine protease, was measured by cleavage of a caspase-specific peptide using the Caspase-3 Colorimetric Assay kit from R&D Systems. HepG2 cells were cultured and treated as above in T-75 tissue culture flasks. Following treatment, cells were scraped off and spun down. The assay was performed according to the kit instructions using 350 μl/flask of lysis buffer.

CC(=N)S [thioacetamide]
Cell morphology of treated cells [1]: somewhat dense and grainy | Caspase-3 activation [2]: significant activation
